Patent US20250009730A1 (priority 2021, published 2025)
Structures can show the parent of a compound that is named as a salt. Where two headings read alike, the source gives them in different places.

Experiments:
[1] = target: T1, NR1/NR2B ionotropic receptors encoded by the human GRIN1/GRIN2B genes, expressed in HEK293 cells (Homo sapiens, UniProt Q05586+Q13224); assay: Syncropatch automated patch clamp on NR1/NR2B receptors in HEK293 cells, antagonist mode (co-applied with 2 μM glutamate and 50 μM glycine); format: cell-based; conditions: for inhibits glutamate and glycine activation of NR1/NR2B receptors in vitro: PCA and SSC measurements, conclusion in words; for NR1/NR2B PCA antagonist HillSlope: co-applied with 2 μM glutamate and 50 μM glycine
Method: (§1) The following patch clamp study investigates these effects on NR1/NR2B ionotropic receptors encoded by the human GRIN1/GRIN2B genes, expressed in HEK293 cells. Compounds were evaluated for functional effects on these ion channel receptors.
(§2) The assay was carried out using an HTS electrophysiology-based approach with the Syncropatch 384pe automated patch clamp system (Nanion), while using HEK293 cells that have been transfected with human GRIN1/GRIN2B genes to express NR1/NR2B ionotropic receptors
(§3) HEK293 cells were transfected with the appropriate ion channel or receptor cDNA(s) encoding NR1 and NR2B. Stable transfectants were selected using the G418 and Zeocin-resistance genes incorporated into the expression plasmid. Selection pressure was maintained with G418 and Zeocin in the culture medium. Cells were cultured in Dulbecco's Modified Eagle Medium/Nutrient Mixture F-12 (D-MEM/F-12) supplemented with 10% fetal bovine serum, 100 U/ml penicillin G sodium, 100 ug/mL streptomycin sulfate, 100 ug/mL Zeocin, 5 ug/mL blasticidin and 500 ug/mL G418.
(§4) Before testing, cells in culture dishes were washed twice with DPBS solution. Immediately before testing, the cells were washed in HB-PS containing 10 mM CaCl2 to improve sealing.
(§5) Compounds were evaluated in 8-point concentration-response format (4 replicate wells/concentration). The compound formulations were loaded in e.g. a 384-well compound plate and placed in the Syncropatch plate well.
(§6) The agonist positive control (L-glutamate) was applied at eight (8) concentrations (0.03-100 μM; n=4, where n=the number of replicates) together with 50 μM glycine.
(§7) 2× concentration of test compounds and antagonist control was pre-applied 2 minutes before application of L-glutamate/glycine mixed with 1× concentration of test compound. Glutamate and glycine was applied to naive cells (n=4, where n=the number of replicate wells/concentration) via a multi-channel pipettor.
(§8) • a) Intracellular solution (mM): 50 mM CsCl, 90 mM CsF, 2 mM MgCl2, 5 mM EGTA, 10 mM HEPES. Adjust to pH 7.2 with CsOH. This solution was prepared in batches and stored refrigerated.
(§9) • a) Extracellular buffer was loaded into the multi holes plate wells (40 μL per well).
(§10) Activation was calculated in two ways based on the following measurements: • 1. peak current amplitudes, and • 2. current amplitude 4-5 seconds after agonist addition.
(§11) Data acquisition was performed via the […] and data was analyzed using Microsoft Excel™ (Microsoft™ Corp., Redmond, WA). Concentration-response data was filled to a Hill equation of the following form: […]
(§12) where Base is the response in the absence of test article (vehicle treatment), Max is the maximum response at high concentrations, xhalf is the EC50, or IC50, the concentration of test compound producing either half-maximal activation or inhibition, and rate is the Hill coefficient. Nonlinear least squares fits were made assuming a simple binding model. If appropriate, fits were weighted by the standard deviation. No assumptions about the fit parameters were made; the fit parameters were determined by algorithm. Raw reduced data was analyzed using Microsoft Excel Office 365 ProPlus (Microsoft™ Corp., Redmond, WA) and XLfit (Excel addon, Copyright© IDBS 2016).
Antagonist activity of test articles was examined after stimulation of receptors with 2 μM glutamate and 50 μM glycine in the presence of increasing concentrations of test articles. Two measurements were performed, first was a peak current amplitude and second was a steady state current between 4th and 6th seconds following agonist application.
as §1
HEK293 cells were transfected with the appropriate ion channel or receptor cDNA(s) encoding NR1 and NR2B.

[2] = target: NR1C and NR2B receptors over NR1C+NR2A receptors (Homo sapiens, UniProt Q05586+Q13224); conditions: cited from earlier work
[3] = test system: cortical damage in a model of permanent focal ischemia; conditions: cited from earlier work
[4] = target: T1, NR1/NR2B ionotropic receptors encoded by the human GRIN1/GRIN2B genes, expressed in HEK293 cells; assay: Syncropatch automated patch clamp on NR1/NR2B receptors in HEK293 cells, agonist mode; format: cell-based; conditions: for EC50 / NR1/NR2B PCA agonist EMAX: plus 50 μM glycine; for NR1/NR2B PCA agonist EMAX: relative to current produced by 100 μM glutamate (EMAX set as 100%)
Method: as §1, §2, §3, §4, §5, §6, §7, §8, §9, §10, §11, §12, §1
HEK293 cells were transfected with the appropriate ion channel or receptor cDNA(s) encoding NR1 and NR2B. Stable transfectants were selected using the G418 and Zeocin-resistance genes incorporated into the expression plasmid. Selection pressure was maintained with G418 and Zeocin in the culture medium.

[5] = steady state current amplitude (SSC) table

T1 sequence (Q13224 27-1484, other chains not shown): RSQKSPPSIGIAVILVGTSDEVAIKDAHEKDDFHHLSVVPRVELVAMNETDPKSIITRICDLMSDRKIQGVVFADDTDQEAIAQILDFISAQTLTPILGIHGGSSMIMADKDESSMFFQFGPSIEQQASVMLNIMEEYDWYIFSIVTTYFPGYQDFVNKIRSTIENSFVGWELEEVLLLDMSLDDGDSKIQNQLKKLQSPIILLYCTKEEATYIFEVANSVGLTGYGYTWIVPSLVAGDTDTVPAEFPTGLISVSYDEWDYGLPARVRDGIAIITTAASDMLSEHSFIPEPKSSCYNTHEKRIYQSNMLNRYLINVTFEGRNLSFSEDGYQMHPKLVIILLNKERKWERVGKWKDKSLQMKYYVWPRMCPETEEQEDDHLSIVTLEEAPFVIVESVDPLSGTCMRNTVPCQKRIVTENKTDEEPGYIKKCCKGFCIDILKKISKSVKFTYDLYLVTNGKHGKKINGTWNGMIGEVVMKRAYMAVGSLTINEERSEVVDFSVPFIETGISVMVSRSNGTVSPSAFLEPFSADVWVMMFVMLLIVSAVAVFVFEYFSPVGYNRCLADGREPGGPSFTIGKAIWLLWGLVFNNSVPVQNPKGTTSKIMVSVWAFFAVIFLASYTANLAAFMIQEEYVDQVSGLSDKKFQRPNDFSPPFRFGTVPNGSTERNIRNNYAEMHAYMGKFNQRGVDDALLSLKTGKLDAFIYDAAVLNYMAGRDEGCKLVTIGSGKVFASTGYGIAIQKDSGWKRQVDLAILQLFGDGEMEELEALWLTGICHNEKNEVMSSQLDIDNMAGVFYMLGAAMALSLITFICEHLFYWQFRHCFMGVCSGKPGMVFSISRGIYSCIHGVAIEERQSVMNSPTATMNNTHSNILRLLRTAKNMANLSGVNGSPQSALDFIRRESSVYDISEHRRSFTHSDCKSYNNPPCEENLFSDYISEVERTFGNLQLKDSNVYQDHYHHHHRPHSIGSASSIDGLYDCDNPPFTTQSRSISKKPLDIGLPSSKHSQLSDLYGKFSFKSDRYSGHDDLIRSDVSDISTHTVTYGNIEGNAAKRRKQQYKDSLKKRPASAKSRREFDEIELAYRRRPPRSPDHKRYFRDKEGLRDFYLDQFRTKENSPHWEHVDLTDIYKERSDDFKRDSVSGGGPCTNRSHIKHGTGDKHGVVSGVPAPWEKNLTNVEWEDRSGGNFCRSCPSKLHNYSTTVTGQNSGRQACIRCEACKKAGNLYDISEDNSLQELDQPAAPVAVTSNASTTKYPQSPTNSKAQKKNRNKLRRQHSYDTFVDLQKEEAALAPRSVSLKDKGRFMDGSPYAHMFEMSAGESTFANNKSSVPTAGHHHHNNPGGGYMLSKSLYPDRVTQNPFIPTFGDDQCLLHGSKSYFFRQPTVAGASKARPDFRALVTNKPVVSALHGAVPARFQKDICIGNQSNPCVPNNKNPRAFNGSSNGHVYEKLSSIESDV
NR1C and NR2B receptors over NR1C+NR2A receptors, sequence (Q13224 27-1484, other chains not shown): as above

Compound: CC(C(O)c1ccc(O)cc1)N1CCC(Cc2ccccc2)CC1.O=C(O)c1ccccc1 (centres unmarked) [Ifenprodil benzoate]
- inhibits glutamate and glycine activation of NR1/NR2B receptors in vitro [1]: comparable to ifenprodil tartrate
- NR1/NR2B PCA antagonist HillSlope ([1]; peak current amplitude (PCA)): 1.39
- NR1/NR2B PCA antagonist HillSlope [1, 5]: 1.25

Compound: CC(C(O)c1ccc(O)cc1)N1CCC(Cc2ccccc2)CC1 (centres unmarked) [Ifenprodil pamoate]
- inhibits glutamate and glycine activation of NR1/NR2B receptors in vitro [1]: comparable to ifenprodil tartrate
- NR1/NR2B PCA antagonist HillSlope ([1]; peak current amplitude (PCA), listed as pamoate): 1.59
- NR1/NR2B PCA antagonist HillSlope ([1]; steady state current amplitude (SSC) table, listed as pamoate): 0.77

Compound: Cc1ccc(CC2(O)CCN(CCOc3ccc(O)cc3)CC2)cc1 [Ro 63-1908]
- selectivity for the NR1C and NR2B receptors over NR1C+NR2A receptors [2]: 20,000 fold
- neuroprotective effect against cortical damage [3]: dose-related neuroprotective effect

Compound: CC(C(O)c1ccc(O)cc1)N1CCC(Cc2ccccc2)CC1 (centres unmarked) [Ifenprodil nicotinate]
- NR1/NR2B PCA antagonist HillSlope ([1]; peak current amplitude (PCA), listed as nicotinate): 0.71
- NR1/NR2B PCA antagonist HillSlope ([1]; steady state current amplitude (SSC) table, listed as nicotinate): 0.71

Compound: CC12CC3CC(C)(C1)CC(N)(C3)C2 [Memantine, memantine chloride, reference compound]
- NR1/NR2B PCA antagonist HillSlope ([1]; peak current amplitude (PCA)): 1.12
- NR1/NR2B PCA antagonist HillSlope [1, 5]: 1.08

Compound: N[C@@H](CCC(=O)O)C(=O)[O-].O.[Na+] [Glutamate, L-Glutamic acid monosodium salt monohydrate]
- NR1/NR2B PCA agonist HillSlope ([4]; peak current amplitude (PCA)): −0.86
- EC50 ([4]; peak current amplitude (PCA)): 3030 nM
- NR1/NR2B PCA agonist EMAX ([4]; peak current amplitude (PCA)): 100.00%
- NR1/NR2B PCA agonist HillSlope [4, 5]: −0.95
- EC50 ([4]; steady state current amplitude (SSC) table, read-out: NR1/NR2B PCA agonist EC50): 820 nM
- NR1/NR2B PCA agonist EMAX [4, 5]: 100.00%

Compound: CC(C(O)c1ccc(O)cc1)N1CCC(Cc2ccccc2)CC1 (centres unmarked) [Ifenprodil fumarate]
- NR1/NR2B PCA antagonist HillSlope ([1]; peak current amplitude (PCA), listed as fumarate): 0.79
- NR1/NR2B PCA antagonist HillSlope ([1]; steady state current amplitude (SSC) table, listed as fumarate): 0.61

Compound: C[C@@H]([C@H](O)c1ccc(O)cc1)N1CCC(Cc2ccccc2)CC1 [Ifenprodil oleate]
- inhibits glutamate and glycine activation of NR1/NR2B receptors in vitro [1]: comparable to ifenprodil tartrate
- NR1/NR2B PCA antagonist HillSlope ([1]; peak current amplitude (PCA)): 0.79
- NR1/NR2B PCA antagonist HillSlope [1, 5]: 0.86
